Test results from ChEMBL document CHEMBL5291721, “A preclinical secondary pharmacology resource illuminates target-adverse drug reaction associations of marketed drugs” (Nat Commun, 2023).

How the values were obtained:
Androgen receptor = target: T1, Androgen receptor (Homo sapiens, UniProt P10275)
T1 sequence (P10275 whole entry): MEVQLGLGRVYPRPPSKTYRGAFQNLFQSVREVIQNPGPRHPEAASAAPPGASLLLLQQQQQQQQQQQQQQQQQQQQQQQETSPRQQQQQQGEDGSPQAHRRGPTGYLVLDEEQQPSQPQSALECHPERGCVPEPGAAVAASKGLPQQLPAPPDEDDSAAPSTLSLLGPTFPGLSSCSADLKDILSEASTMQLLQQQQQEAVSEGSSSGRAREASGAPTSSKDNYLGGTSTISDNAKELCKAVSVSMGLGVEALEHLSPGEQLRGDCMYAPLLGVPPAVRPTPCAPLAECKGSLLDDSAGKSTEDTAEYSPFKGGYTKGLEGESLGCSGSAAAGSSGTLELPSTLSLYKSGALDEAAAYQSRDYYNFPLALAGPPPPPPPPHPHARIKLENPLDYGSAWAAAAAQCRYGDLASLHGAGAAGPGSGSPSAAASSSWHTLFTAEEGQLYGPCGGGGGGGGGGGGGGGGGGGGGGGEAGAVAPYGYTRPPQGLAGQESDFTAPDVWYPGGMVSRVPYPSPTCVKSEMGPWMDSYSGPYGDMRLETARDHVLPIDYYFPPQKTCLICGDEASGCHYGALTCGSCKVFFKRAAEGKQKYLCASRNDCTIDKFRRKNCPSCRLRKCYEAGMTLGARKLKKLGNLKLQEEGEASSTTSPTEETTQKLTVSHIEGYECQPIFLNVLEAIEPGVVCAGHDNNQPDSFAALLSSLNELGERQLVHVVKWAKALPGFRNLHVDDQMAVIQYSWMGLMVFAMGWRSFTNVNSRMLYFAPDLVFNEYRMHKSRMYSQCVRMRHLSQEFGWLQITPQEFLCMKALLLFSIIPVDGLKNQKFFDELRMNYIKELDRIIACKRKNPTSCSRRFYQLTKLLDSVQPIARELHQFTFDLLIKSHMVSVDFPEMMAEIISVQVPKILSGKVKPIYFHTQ

[1] = target: T2, Muscarinic acetylcholine receptor M1 (Homo sapiens, UniProt P11229); format: functional, cell-based
T2 sequence (P11229 whole entry): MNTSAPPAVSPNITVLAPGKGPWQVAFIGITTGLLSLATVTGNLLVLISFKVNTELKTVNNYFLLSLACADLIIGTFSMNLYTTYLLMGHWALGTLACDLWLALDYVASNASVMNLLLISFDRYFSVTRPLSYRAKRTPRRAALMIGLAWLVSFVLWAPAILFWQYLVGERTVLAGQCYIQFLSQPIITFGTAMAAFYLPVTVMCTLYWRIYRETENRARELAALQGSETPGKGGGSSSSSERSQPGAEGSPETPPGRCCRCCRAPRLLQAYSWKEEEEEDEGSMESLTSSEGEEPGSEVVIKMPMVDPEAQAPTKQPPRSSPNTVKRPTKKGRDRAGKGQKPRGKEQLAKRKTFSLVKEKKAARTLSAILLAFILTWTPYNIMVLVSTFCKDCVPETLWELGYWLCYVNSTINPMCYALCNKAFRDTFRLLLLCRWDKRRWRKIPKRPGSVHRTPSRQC

[2] = target: T2, Muscarinic acetylcholine receptor M1; format: functional, cell-based; remark: listed apart in the source
D(1A) dopamine receptor = D(1A) dopamine receptor (Homo sapiens, UniProt P21728)
[3] = target: Gamma-aminobutyric acid receptor subunit alpha-1 (Rattus norvegicus, UniProt P62813)
[4] = target: Vascular endothelial growth factor receptor 2 (Homo sapiens, UniProt P35968); format: functional
[5] = target: T3, Amine oxidase [flavin-containing] A (Homo sapiens, UniProt P21397); format: functional
T3 sequence (P21397 whole entry): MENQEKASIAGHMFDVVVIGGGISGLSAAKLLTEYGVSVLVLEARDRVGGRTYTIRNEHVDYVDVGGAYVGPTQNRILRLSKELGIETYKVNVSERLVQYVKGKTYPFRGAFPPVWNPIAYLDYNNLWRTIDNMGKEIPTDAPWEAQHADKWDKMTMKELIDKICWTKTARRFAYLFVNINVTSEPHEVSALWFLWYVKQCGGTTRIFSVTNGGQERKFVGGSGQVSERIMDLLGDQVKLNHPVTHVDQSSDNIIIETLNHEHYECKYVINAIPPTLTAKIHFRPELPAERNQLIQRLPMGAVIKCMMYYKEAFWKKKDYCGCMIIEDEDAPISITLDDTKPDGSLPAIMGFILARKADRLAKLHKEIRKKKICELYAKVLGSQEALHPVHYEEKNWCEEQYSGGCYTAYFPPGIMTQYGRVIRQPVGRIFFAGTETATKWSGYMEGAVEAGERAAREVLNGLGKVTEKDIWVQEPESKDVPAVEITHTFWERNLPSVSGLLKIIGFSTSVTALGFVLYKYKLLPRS

Mu-type opioid receptor = Mu-type opioid receptor (Homo sapiens, UniProt P35372)
[6] = target: Prostaglandin G/H synthase 1 (Homo sapiens, UniProt P23219); format: functional
[7] = target: Sodium-dependent noradrenaline transporter (Homo sapiens, UniProt P23975)
[8] = target: Sodium-dependent serotonin transporter (Homo sapiens, UniProt P31645)
[9] = target: Gamma-aminobutyric acid receptor subunit alpha-1/alpha-2/beta-2/gamma-2 (Homo sapiens, UniProt P14867+P18507+P47869+P47870); format: protein-complex assay
[10] = target: T4, Alpha-1A adrenergic receptor (Homo sapiens, UniProt P35348); format: functional, cell-based
T4 sequence (P35348 whole entry): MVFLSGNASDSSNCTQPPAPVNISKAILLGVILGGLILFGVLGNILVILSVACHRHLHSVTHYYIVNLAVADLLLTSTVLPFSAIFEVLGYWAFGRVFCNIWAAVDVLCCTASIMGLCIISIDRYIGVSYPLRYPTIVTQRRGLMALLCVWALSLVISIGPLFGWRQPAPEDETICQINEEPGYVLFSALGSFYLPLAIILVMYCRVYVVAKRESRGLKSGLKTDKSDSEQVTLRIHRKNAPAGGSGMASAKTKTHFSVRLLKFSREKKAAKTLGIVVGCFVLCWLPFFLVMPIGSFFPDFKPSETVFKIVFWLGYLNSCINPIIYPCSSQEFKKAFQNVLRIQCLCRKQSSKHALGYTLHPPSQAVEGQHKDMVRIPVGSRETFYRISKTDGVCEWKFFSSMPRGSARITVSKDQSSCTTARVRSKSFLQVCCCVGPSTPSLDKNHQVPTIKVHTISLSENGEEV
Further: assay procedure not described here.

Gamma-aminobutyric acid receptor subunit alpha-1/alpha-2/beta-2/gamma-2, sequence (P14867 whole entry): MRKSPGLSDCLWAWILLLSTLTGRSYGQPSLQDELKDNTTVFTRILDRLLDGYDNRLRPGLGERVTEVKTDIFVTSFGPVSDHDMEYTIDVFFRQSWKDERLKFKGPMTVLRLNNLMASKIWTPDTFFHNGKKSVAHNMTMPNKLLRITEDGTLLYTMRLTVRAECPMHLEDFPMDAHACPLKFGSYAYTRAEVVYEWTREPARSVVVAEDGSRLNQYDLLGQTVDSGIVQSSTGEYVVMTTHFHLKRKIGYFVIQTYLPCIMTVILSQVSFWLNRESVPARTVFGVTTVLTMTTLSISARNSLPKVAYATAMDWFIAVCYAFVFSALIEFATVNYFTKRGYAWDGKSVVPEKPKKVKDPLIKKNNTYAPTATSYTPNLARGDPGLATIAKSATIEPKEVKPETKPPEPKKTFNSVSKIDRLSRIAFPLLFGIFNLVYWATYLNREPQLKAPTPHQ
Gamma-aminobutyric acid receptor subunit alpha-1/alpha-2/beta-2/gamma-2, sequence (P47870 whole entry): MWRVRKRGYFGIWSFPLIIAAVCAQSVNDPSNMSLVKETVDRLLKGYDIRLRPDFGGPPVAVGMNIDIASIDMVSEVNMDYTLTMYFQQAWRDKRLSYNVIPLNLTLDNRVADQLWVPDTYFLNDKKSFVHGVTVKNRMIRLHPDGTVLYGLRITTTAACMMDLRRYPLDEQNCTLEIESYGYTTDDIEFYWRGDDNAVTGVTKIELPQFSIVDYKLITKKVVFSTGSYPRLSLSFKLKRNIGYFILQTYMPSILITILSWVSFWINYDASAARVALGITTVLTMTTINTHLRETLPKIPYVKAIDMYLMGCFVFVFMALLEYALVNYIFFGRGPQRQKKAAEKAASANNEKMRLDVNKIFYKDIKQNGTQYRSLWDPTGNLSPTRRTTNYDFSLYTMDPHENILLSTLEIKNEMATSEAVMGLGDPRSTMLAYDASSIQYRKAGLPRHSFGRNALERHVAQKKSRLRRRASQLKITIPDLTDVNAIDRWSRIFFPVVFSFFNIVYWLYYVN
Gamma-aminobutyric acid receptor subunit alpha-1/alpha-2/beta-2/gamma-2, sequence (P18507 whole entry): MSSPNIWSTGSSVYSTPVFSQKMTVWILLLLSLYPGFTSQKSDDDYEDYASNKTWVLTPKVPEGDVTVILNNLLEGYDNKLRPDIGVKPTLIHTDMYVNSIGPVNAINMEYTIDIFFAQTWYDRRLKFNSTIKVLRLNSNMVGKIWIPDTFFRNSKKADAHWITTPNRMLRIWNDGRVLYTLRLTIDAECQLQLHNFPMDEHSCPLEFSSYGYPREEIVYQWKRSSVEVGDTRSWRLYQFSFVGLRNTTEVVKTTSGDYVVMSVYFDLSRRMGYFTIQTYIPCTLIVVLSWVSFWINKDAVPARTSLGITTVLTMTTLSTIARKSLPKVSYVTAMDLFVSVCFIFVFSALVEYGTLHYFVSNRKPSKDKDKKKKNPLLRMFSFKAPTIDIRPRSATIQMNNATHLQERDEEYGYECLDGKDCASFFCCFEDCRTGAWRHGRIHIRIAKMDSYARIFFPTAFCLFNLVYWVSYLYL
Gamma-aminobutyric acid receptor subunit alpha-1/alpha-2/beta-2/gamma-2, sequence (P47869 whole entry): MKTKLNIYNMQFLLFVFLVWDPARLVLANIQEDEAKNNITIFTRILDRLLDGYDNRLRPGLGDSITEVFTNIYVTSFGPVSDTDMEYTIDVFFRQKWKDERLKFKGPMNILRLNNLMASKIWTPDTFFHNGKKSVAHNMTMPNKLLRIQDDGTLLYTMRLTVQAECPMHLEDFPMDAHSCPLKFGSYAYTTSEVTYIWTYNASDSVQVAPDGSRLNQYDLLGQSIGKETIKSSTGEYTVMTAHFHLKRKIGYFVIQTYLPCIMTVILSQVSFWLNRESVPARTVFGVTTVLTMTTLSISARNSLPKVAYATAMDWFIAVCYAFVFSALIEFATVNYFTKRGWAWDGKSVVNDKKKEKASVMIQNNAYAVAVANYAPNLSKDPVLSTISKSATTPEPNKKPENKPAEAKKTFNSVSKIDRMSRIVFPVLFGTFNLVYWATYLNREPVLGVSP
Sodium-dependent noradrenaline transporter, sequence (P23975 whole entry): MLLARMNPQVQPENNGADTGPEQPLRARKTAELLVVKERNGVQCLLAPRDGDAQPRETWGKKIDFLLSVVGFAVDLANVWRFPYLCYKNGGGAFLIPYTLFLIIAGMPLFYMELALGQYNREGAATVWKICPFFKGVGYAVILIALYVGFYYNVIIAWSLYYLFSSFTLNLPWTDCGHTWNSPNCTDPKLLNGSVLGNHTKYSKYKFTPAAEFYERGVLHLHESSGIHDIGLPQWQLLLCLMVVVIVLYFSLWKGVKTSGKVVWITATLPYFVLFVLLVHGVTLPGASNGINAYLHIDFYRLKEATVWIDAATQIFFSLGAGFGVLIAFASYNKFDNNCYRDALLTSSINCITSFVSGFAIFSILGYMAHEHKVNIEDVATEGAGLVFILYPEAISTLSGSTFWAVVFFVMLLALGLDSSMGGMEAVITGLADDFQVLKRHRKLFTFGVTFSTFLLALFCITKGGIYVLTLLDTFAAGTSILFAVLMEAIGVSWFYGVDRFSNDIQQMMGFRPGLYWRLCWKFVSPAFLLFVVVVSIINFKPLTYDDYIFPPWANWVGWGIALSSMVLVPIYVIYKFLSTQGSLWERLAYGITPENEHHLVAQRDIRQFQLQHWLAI
D(1A) dopamine receptor, sequence (P21728 whole entry): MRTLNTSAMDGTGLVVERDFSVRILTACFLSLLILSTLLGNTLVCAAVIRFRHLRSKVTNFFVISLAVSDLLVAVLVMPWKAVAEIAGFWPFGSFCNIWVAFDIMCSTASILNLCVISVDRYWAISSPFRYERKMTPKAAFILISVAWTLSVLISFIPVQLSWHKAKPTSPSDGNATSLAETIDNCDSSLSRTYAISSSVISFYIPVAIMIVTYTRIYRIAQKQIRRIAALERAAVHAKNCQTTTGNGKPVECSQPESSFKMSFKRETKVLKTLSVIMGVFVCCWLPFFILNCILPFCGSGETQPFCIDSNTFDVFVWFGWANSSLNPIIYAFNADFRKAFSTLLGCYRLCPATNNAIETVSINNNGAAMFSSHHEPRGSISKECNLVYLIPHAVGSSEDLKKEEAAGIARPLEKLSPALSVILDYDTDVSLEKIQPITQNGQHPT
Prostaglandin G/H synthase 1, sequence (P23219 whole entry): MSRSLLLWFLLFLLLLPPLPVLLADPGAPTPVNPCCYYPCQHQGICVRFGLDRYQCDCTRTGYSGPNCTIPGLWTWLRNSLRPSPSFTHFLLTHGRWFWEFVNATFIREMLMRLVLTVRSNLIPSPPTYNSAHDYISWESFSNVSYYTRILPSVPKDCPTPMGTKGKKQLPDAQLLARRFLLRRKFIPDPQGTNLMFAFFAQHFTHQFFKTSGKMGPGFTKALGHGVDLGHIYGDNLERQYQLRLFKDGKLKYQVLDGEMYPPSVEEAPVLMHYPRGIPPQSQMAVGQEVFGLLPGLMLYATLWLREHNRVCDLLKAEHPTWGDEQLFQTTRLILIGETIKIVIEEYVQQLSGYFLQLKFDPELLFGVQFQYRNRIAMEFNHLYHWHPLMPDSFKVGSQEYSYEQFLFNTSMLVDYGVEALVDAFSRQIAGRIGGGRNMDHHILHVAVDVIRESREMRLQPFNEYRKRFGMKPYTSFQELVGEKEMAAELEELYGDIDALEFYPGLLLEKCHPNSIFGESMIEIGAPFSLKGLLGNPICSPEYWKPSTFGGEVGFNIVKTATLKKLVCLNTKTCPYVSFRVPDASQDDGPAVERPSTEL
Sodium-dependent serotonin transporter, sequence (P31645 whole entry): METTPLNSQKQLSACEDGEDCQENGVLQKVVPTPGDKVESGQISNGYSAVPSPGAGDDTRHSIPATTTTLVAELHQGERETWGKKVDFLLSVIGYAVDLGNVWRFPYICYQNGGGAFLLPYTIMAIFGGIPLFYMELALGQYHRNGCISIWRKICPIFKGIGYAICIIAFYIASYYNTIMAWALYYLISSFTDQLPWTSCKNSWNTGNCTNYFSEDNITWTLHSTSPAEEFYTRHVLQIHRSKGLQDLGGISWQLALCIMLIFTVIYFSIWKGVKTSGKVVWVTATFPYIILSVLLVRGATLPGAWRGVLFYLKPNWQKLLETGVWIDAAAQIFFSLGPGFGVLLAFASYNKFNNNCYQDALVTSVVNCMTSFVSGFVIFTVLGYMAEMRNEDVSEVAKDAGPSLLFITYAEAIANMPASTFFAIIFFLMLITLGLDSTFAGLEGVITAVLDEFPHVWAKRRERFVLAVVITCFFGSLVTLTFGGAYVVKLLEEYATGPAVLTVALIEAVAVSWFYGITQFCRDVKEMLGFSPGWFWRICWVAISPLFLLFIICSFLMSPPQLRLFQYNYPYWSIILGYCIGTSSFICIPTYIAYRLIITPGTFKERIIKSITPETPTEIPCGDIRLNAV
Mu-type opioid receptor, sequence (P35372 whole entry): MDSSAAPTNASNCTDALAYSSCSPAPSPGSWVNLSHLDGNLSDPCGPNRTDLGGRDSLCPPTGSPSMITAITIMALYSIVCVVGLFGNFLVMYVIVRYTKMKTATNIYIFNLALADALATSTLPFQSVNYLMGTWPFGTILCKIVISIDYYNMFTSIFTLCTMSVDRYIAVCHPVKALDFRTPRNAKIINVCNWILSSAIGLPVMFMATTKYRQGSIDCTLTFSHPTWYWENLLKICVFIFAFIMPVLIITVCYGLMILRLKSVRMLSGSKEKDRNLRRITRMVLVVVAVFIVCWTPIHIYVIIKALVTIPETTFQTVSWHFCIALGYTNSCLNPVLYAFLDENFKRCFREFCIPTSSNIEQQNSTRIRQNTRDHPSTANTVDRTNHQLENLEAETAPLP

Structure (SMILES) | AC50 (Androgen receptor) | AC50 [1] | AC50 [2] | AC50 (D(1A) dopamine receptor) | AC50 [3] | AC50 [4] | AC50 [5] | AC50 (Mu-type opioid receptor) | AC50 [6] | AC50 [7] | AC50 [8] | AC50 [9] | AC50 [10]
CCOc1ccc(Cc2nccc3cc(OCC)c(OCC)cc23)cc1OCC [ETHAVERINE] | > 30 µM | > 30 µM | 1.66 µM | 8.59 µM | > 30 µM | > 30 µM | > 30 µM | > 30 µM | > 30 µM | > 30 µM | > 30 µM |  | 
COC(=O)Nc1nc2cc(C(=O)c3ccc(F)cc3)ccc2[nH]1 [FLUBENDAZOLE] | > 30 µM |  |  | > 30 µM |  | 0.386 µM | > 30 µM | > 30 µM | 2.17 µM | > 10 µM |  | > 30 µM | 
C[C@@H]1O[C@@H](O[C@H]2C[C@@H](O)[C@]3(CO)[C@H]4[C@H](O)C[C@]5(C)[C@@H](C6=CC(=O)OC6)CC[C@]5(O)[C@@H]4CC[C@]3(O)C2)[C@H](O)[C@H](O)[C@H]1O [OUABAIN] | > 30 µM |  |  | > 30 µM |  | > 30 µM | > 30 µM | > 30 µM | > 30 µM | > 30 µM |  | > 30 µM | 
CC1(C)C[C@@H]1C(=O)N/C(=C\CCCCSC[C@H](N)C(=O)O)C(=O)O [CILASTATIN] | > 30 µM | > 30 µM | > 30 µM | > 30 µM | > 30 µM |  | > 30 µM | > 30 µM | > 30 µM | > 30 µM | > 30 µM |  | 
CC(O)(CC(=O)O)CC(=O)O [MEGLUTOL] | > 30 µM | > 30 µM | 9.87 µM | > 30 µM | > 30 µM | > 30 µM | > 30 µM | > 30 µM | > 30 µM | > 30 µM | > 30 µM |  | 
C[C@@H](O)[C@H]1C(=O)N2C(C(=O)O)=C(S[C@@H]3CN[C@H](C(=O)Nc4cccc(C(=O)O)c4)C3)[C@H](C)[C@H]12 | > 30 µM |  |  | > 30 µM | > 30 µM |  | > 30 µM | > 30 µM | 10.2 µM | > 30 µM | > 30 µM |  | 
OCc1ccccc1 [BENZYL ALCOHOL] | > 30 µM |  |  | > 30 µM |  | > 30 µM | > 30 µM | > 30 µM | > 30 µM | > 30 µM |  | > 30 µM | 
CC1(C)S[C@@H]2[C@H](NC(=O)[C@H](NC(=O)c3cnc4cccnc4c3O)c3ccccc3)C(=O)N2[C@H]1C(=O)O [APALCILLIN] | > 30 µM | > 30 µM | > 30 µM | > 30 µM | 1.25 µM | > 30 µM | > 30 µM | > 30 µM | 17.6 µM | > 30 µM | > 30 µM |  | 
Oc1ccc(OCc2ccccc2)cc1 [MONOBENZONE] | > 30 µM |  |  | > 30 µM |  | > 30 µM | > 30 µM | > 30 µM | 11 µM | 6.96 µM |  | > 30 µM | 
COc1c(OCCCN2CCOCC2)ccc2c1N=C(NC(=O)c1cnc(N)nc1)N1CCN=C21 [COPANLISIB] | > 30 µM | > 30 µM | > 30 µM | > 30 µM | > 30 µM |  | > 30 µM | > 30 µM | > 30 µM | > 30 µM | > 30 µM |  | 
CC(C)(C)NCC(O)COc1ccccc1C#N (stereo not drawn) [BUNITROLOL] | > 30 µM | > 30 µM | > 30 µM | > 30 µM | > 30 µM |  | 10.4 µM | > 30 µM | > 30 µM | > 30 µM | > 30 µM |  | > 30 µM
[H]/N=C(/N)NS(=O)(=O)c1ccc(N)cc1 [SULFAGUANIDINE] | > 30 µM | > 30 µM | > 30 µM | > 30 µM | > 30 µM | > 30 µM | > 30 µM | > 30 µM | > 30 µM | > 30 µM | > 30 µM |  | 
CC(=O)O[C@]1(C(C)=O)CC[C@H]2[C@@H]3CCC4=CC(=O)CCC4=C3[C@@H](c3ccc(N(C)C)cc3)C[C@@]21C [ULIPRISTAL ACETATE] | 0.03 µM | > 30 µM | > 30 µM | > 30 µM | > 30 µM |  | > 30 µM | 22.5 µM | > 30 µM | > 30 µM | > 30 µM |  | 
COc1ccc(C(=O)c2ccccc2)c(O)c1 [OXYBENZONE] | > 30 µM | > 30 µM | > 10 µM | > 30 µM | > 30 µM |  | > 30 µM | > 30 µM | > 30 µM | 11.6 µM | > 30 µM |  | > 30 µM
OC(CN1CCCCC1)c1cc(-c2ccccc2)on1 (stereo not drawn) [PERISOXAL] | > 30 µM |  |  | 3.82 µM | > 30 µM |  | > 30 µM | 27.4 µM | > 30 µM | 21.9 µM | > 30 µM |  | 
O=NN(CCCl)C(=O)NCCCl [CARMUSTINE] | > 30 µM |  |  | > 30 µM | > 30 µM |  | > 30 µM | > 30 µM |  | > 30 µM |  |  | 
CO[C@H]1/C=C/O[C@@]2(C)Oc3c(C)c(O)c4c(c3C2=O)C2=NC3(CCN(CC(C)C)CC3)NC2=C(NC(=O)/C(C)=C\C=C\[C@H](C)[C@H](O)[C@@H](C)[C@@H](O)[C@@H](C)[C@H](OC(C)=O)[C@@H]1C)C4=O [RIFABUTIN] | > 30 µM |  |  | > 30 µM |  | > 30 µM | > 30 µM | > 30 µM | 17.7 µM | > 30 µM |  | > 30 µM | 
